Measurements: patent US6025387A, “Gastroprotective flavone/flavanone compounds with therapeutic effect on inflammatory bowel disease” (Dong a Pharmaceutical Co., Ltd., priority 1996, dated 2000)
Values after ≈ are worked out from the molar mass of the structure shown.

How the values were obtained:
leukocytes = settings: cited from earlier work
[1] = test system: gastric mucosal damage induced by ethanolic HCl; experiment: Gastritis model induced with ethanolic-HCl; format: in vivo, SD male rat; settings: po, 1 h, rat; for inhibition in vivo at 0.3 mg/kg: 0.3 mg/kg p.o.; for inhibition in vivo at 1 mg/kg: 1 mg/kg p.o.; for inhibition in vivo at 3 mg/kg: 3 mg/kg p.o.
Description: Effect on the Gastritis Model Induced with Ethanolic-HCl.
SD male rat(250-350 g) was fasted for 24 hours. The compound was orally administered in suspension of 5% HPMC, and after 1 hour 1.5 mL of 150 mM HCl-80% ethanol was orally administered. After 1 hour the rat was sacrifieced and the stomach was extracted and the ulcer index was measured. The ulcer index was shown by the area of hemorrhage lesion(Mizui, T, et al., Jpn. J. Pharmacol. 1983, 33: 939).

gastric mucus secretion = experiment: Measurement of gastric mucus; format: in vivo, SD male rat; settings: oral, rat
Description: Measurement of Gastric Mucus
The compound was orally administered into SD male rat (200~250 g). After 1 hour the stomach was extracted. The extracted stomach was immediately washed with 10 mL of cold 0.25M sucrose solution. The gastric mucosa was dyed with 0.1% alcian blue solution for 2 hours. After dyeing, the gastric mucosa was washed with 0.25M sucrose solution twice for 15 minutes and for 45 minutes. The dyed gastric mucosa was treated with 10 mL of 30% dioctyl sodium sulfosuccinate solution for 2 hours to extract dyed mucus completely and optical density of aqueous phase was measured spectrophotometrically at 655 nm. The amount of mucus in the gastric mucosa was shown as the amount of alcian blue after calibration (Kitagawa, H., et al., Drug Res. 1986, 36: 1240-1244).

neutrophils = experiment: Luminol-dependent chemiluminescence of neutrophils induced by FMLP; format: cell-based; settings: Neutrophil, 1 μM FMLP, 0.07 mM luminol; read-out: IC50, inhibition of chemiluminescence generated by neutrophil activation
Description: Measurement of luminol-dependent chemiluminescencei iof neutrophil induced by FMLP.
20 mL of 12% sodium caseinate-0.9% saline was administered intraperitoneally (Newsby, A. C., Biochem. J., 1980, 186: 907,. After 20 hours, the intraperitoneal exudate was extracted under ether anesthesia. The exudate was centrifuged, and erythrocytes were removed by hypotonic lysis, and then neutrophil was washed. Neutrophil was ascertained by Wright's dyeing method, and viability was measured by Trypan blue exclusion test. Chemiluminescence was measured by Topcount (Packard Co.). The suspension of 1.5×10^6 of granulocytes, 1 μM of FMLP, 0.07 mM of luminol and the compound in HBSS was used (Dahlgren, C., et al., Infect. Immun., 1985 47: 326-328).
**IC50 (μg/mL): Concentration of the compound at inhibiting
chemiluminescence generated by neutrophil activation to 50%

cyclooxygenase [2] = experiment: Cyclooxygenase activity in HUVEC (PGF1 α synthesis); format: cell-based
Description: (§1) Measurment of Cyclooxygenase Actvity
(§2) After addition of the compound to cultured HUVEC, the HUVEC was incubated at 37° C., for 30 minutes, then arachidonic acid (final concentration: 30 .rho.M) was added, and the HUVEC was additionally incubated at 37° C. for 15 minutes. The culture medium was taken, and the activity of cyclooxygenase for 6-Keto-PGF1 α or PGE2 was measured by radioimmunoassay (Mitchell, J. A., et al., Pro. Natl. Acad. Sci. USA 1994, 90: 11693-11697).
**SC200 (ug/mL) : Concentration at increasing generation of […]

cyclooxygenase [3] = experiment: Cyclooxygenase activity in HUVEC (PGE2 synthesis); format: cell-based
Description: as §1, §2
**SC200 (μg/mL) : Concentration at increasing generation of […]

5-lipoxygenase = target: T1, 5-lipoxygenase (Rattus norvegicus, UniProt P12527); experiment: 5-lipoxygenase activity (LTB4 in A23187-stimulated peritoneal neutrophils); format: cell-based
T1 construct: endogenous in cells; host or cells: casein-elicited rat peritoneal neutrophils
T1 sequence (P12527 1-673): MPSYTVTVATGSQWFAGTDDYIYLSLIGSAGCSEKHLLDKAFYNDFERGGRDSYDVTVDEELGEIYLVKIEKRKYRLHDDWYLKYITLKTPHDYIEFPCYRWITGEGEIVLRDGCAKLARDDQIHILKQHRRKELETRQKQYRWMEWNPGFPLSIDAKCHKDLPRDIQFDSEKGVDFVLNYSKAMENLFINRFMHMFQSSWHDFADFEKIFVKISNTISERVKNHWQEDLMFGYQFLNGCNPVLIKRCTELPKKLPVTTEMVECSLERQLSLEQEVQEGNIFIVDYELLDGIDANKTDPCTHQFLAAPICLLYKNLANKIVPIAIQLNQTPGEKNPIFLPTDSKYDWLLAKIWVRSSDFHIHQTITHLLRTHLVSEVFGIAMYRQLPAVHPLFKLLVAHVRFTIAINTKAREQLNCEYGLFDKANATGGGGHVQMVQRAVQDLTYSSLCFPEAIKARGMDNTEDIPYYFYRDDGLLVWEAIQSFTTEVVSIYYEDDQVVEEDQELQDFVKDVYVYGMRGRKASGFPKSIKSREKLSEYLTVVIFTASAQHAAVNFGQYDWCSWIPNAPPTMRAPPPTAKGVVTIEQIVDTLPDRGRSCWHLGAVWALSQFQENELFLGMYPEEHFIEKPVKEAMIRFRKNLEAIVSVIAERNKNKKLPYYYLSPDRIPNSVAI
Description: Measurement of 5-lipooxygenase Activity
Modified Safayhi et al.'s method (Safayhi, H., et al., Biochem. Pharmacol. 1985, 34: 2691) was used to this experiment. Peritoneal neutrophil was separated from the rat which was treated with casein solution. The compound was added to 10^7 cells (5×10^6 cells/mL, 2 mL) of neutrophil after 2 minutes Ca^2+ -ionophore, A23187 (1 μg/mL) was added and the mixture was incubared at 37° C. for 10 minutes. The reaction mixture was centrifuged and the supermatant was taken up. The amount of LTB4 in the supermatant was measured by radioimmunoassay.

[4] = test system: epidermal cells of mucous membrane in gastrointestinal tracts; settings: cited from earlier work
[5] = test system: gastric mucosal damage induced by NSAIDs; settings: NSAID-induced; cited from earlier work
[6] = test system: gastric ulcer induced by NSAIDs; settings: clinical; cited from earlier work
[7] = test system: gastritis and gastric ulcer; settings: in vivo; cited from earlier work
gastric mucosa = settings: U.S. Pat. No. 5,399,584; cited from earlier work
experimental ulceration = settings: various kinds of ulcerogens; cited from earlier work

Which “leukocyte adherence to vascular endothelium” value (leukocytes) does the source give for COc1ccc2c(c1)c(CC(=O)O)c(C)n2C(=O)c1ccc(Cl)cc1 [indomethacin] here?
Its value is “induce adherence of leukocytes to the vascular endothelium”.

Which results are given for COc1ccc(-c2cc(=O)c3c(OC)c(OC)c(OCC(=O)O)cc3o2)cc1OC [7-carboxymethyloxy-3',4',5,6-tetramethoxy flavone]?
inhibition in vivo at 0.3 mg/kg [1]: 54%; inhibition in vivo at 1 mg/kg [1]: 77%; inhibition in vivo at 3 mg/kg [1]: 84%; gastric mucus secretion, % Control (gastric mucus secretion; 0.3 mg/kg): 120 % Control; gastric mucus secretion, % Control (gastric mucus secretion; 3 mg/kg): 130 % Control; gastric mucus secretion, % Control (gastric mucus secretion; 30 mg/kg): 139 % Control; IC50 (neutrophils): 1.57 µg/mL (≈ 3.77 µM); SC200, concentration increasing generation of PGF1α to 200% (cyclooxygenase [2]): 11.09 µg/mL; SC200, concentration increasing generation of PGE2 to 200% (cyclooxygenase [3]): 15.76 µg/mL; IC50 (5-lipoxygenase): 140 µM

Which “effect of long-term administration to rats” value [4] does the source give for COc1ccc2[nH]c([S+]([O-])Cc3ncc(C)c(OC)c3C)nc2c1 (stereo not drawn) [omeprazole] here?
The value was “caused dysplasia in epidermal cells of mucous membrane in gastrointestinal tracts”.

With COc1ccc(-c2cc(=O)c3c(O)c(OC)c(O)cc3o2)cc1OC [5,7-dihydroxy-3',4',6-trimethoxy flavone] as the compound, how does the inhibition in vivo at 0.3 mg/kg [1] read?
Its inhibition in vivo at 0.3 mg/kg is 58%.

What about the inhibition in vivo at 1 mg/kg [1] of the same compound?
The inhibition in vivo at 1 mg/kg was 64%.

And the inhibition in vivo at 3 mg/kg [1]?
The inhibition in vivo at 3 mg/kg was 80%.

And the “gastric mucus secretion, % Control” value (gastric mucus secretion; 0.3 mg/kg)?
The value was 132.2 % Control.

And the “gastric mucus secretion, % Control” value (gastric mucus secretion; 3 mg/kg)?
The value was 130.7 % Control.

What about the “gastric mucus secretion, % Control” value (gastric mucus secretion; 30 mg/kg) of the same compound?
Its value is 116.8 % Control.

What about the IC50 (neutrophils) of the same compound?
Its IC50 is 0.463 µg/mL (≈ 1.34 µM).

And the “SC200, concentration increasing generation of PGF1α to 200%” value (cyclooxygenase [2])?
The value was 3.4 µg/mL.

What about the “SC200, concentration increasing generation of PGE2 to 200%” value (cyclooxygenase [3]) of the same compound?
Its value is 2.4 µg/mL.

What about the IC50 (5-lipoxygenase) of the same compound?
Its IC50 is 13.1 µM.

Which “reduction of gastric mucosal damage” value [5] does the source give for catalase here?
Its value is “significantly reduce the extent of gastric mucosal damage induced by NSAIDs”.

With CCCCC(C)(O)C/C=C/[C@H]1[C@H](O)CC(=O)[C@@H]1CCCCCCC(=O)OC (mixture of isomers) [misoprostol] as the compound, how does the “prevention of NSAID-induced gastric ulcer” value [6] read?
Its value is “prevented the gastric ulcer induced by NSAIDs”.

Which frequency of recurrence [7] does the source give for sucralfate here?
The frequency of recurrence was “low frequency of recurrence”.

Which “protective effect on damage of gastric mucosa” value (gastric mucosa) does the source give for COc1cccc2oc(-c3ccc(F)cc3)cc(=O)c12 [4'-fluoro-5-methoxy flavone] here?
The value was “protective effect on the damage of gastric mucosa”.

Which “prevention of experimental ulceration” value (experimental ulceration) does the source give for CCCCC[C@H](O)/C=C/[C@H]1[C@H](O)CC(=O)[C@@H]1C/C=C\CCCC(=O)O [PGE2] here?
Its value is “effectively prevent the experimental ulceration”.
